Earlier results as cited in patent US20230240327A1, “FUNCTIONAL SOYBEAN MEAL” (CAN TECHNOLOGIES, INC., priority 2020, published 2023).
Read-outs that look alike come from different tables or passages of the source.

How the values were obtained:
microorganisms = settings: according to several studies; compared with antibiotics
Bacteria = settings: when in their dissociated form
[1] = Table 7

Q: Which Main effects (poultry; 0.15 wt% of feed (butyric acid)) does the source give for `CCCC(=O)O` [Butyric acid] here?
A: Its Main effects is “Maintain the beneficial micro flora”.

Q: For `Cc1ccc(C(C)C)cc1O` [carvacrol], which antimicrobial activity (microorganisms) is on record?
A: The antimicrobial activity was “stronger than in some antibiotics”.

Q: Which Main effects (poultry; 0.50 - 1.00 wt% of feed (fumaric acid)) does the source give for `O=C(O)/C=C/C(=O)O` [Fumaric acid] here?
A: The Main effects was “Improvement in weight gain of broilers”.

Q: Which bactericidal effect (Bacteria) does the source give for `CCC(=O)O` [Propionic acid] here?
A: The bactericidal effect was “bactericidal effect”.

Q: Which antimicrobial activity (microorganisms) does the source give for `Cc1ccc(C(C)C)c(O)c1` [thymol] here?
A: The antimicrobial activity was “stronger than in some antibiotics”.

Q: For `C/C=C/C=C/C(=O)O` [Sorbic acid], which Main effects (poultry; 1.12 wt% of feed) is on record?
A: Its Main effects is “Improves feed efficiency”.

Q: What about the bactericidal effect (Bacteria) of the same compound?
A: Its bactericidal effect is “bactericidal effect”.

Q: For `CC(O)C(=O)O` (stereo not drawn) [Lactic acid], which Main effects (poultry; 2.00 wt% of feed) is on record?
A: The Main effects was “Feed to gain ratio significantly improved. Body weight gain”.

Q: And the bactericidal effect (Bacteria)?
A: Its bactericidal effect is “bactericidal effect”.

Q: With `O=C(O)c1ccccc1` [Benzoic acid] as the compound, how does the Main effects (poultry; 0.20 wt% of feed) read?
A: The Main effects was “Positive influence on growth”.

Q: With `CC(C)=CCC/C(C)=C/CO` [geraniol] as the compound, how does the antimicrobial activity (microorganisms) read?
A: Its antimicrobial activity is “stronger than in some antibiotics”.

Q: Which pKa [1] does the source give for `CCCCCCCCCCCC(=O)O` [Lauric acid] here?
A: Its pKa is 5.13.

Q: For `O=C(O)CC(O)C(=O)O` (stereo not drawn) [Malic acid], which Main effects (poultry; 0.50 - 2.00 wt% of feed) is on record?
A: Its Main effects is “Increase in weight gain”.

Q: For `O=CO` [Formic acid], which Main effects (poultry; 0.50 - 1.00 wt% of feed (formic acid)) is on record?
A: Its Main effects is “Reduction of coecal pH and bactericidal effect on Salmonella”.

Q: And the bactericidal effect (Bacteria)?
A: Its bactericidal effect is “bactericidal effect”.

Q: Which Main effects (poultry; 0.15 - 0.20 wt% of feed (buffered propionic acid)) does the source give for `CCC(=O)O` [Propionic acid (buffered), Propionic acid] here?
A: The Main effects was “Increase in dressing percentage in female broilers”.

Q: Which Main effects (poultry; 0.33 wt% of feed) does the source give for `O=C(O)C(O)C(O)C(=O)O` (stereo not drawn) [Tartaric acid] here?
A: The Main effects was “Improves weight gain”.

Q: For `C=CCc1ccc(O)c(OC)c1` [eugenol], which antimicrobial activity (microorganisms) is on record?
A: Its antimicrobial activity is “stronger than in some antibiotics”.
